Where two headings read alike, the source gives them in different places.
What was measured:
[1] = system: Human breast cancer cell line T47D; experiment: Potentiation of MMS induced apoptosis, cell based caspase-3 activity assay; conditions: read-out: Compounds potentiate the apoptosis inducing activity of MMS (EC50);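 also: Caspase-3 activity in cell lysates measured by fluorescence (RFU), EC50 fitted from sigmoidal curve of signal versus log compound concentration in presence of MMS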
Description: Human breast cancer cell line T47D (Nanjing KeyGEN Biotech. CO., LTD.) was used to determine the potentiation effect of PARP-1 inhibitors on the apoptosis inducing activity of DNA damaging anticancer drugs such as MMS. Intracellular caspase-3 activity was used to measure cell apoptosis. Briefly, T47D cells were grown in DMEM/F12 cell culture medium (Hyclone) supplemented with 0.2 U/ml insulin (Genview) and 10% FBS (Hyclone). A day before experiment, 20000 of T47D cells were seeded to each well of a 96-well cell culture plate and maintained at 37° C. and 5% CO2 in a cell culture incubator overnight. On the day of experiment, cell culture medium was removed. […] The serial dilutions of the compounds to be tested and the reference compounds were made in a 1:3 and 1:10 fashion in DMSO. The 10-fold compound solutions were made by mixing 10 μl DMSO serial dilution solutions with 90 μl fresh growth medium. Twenty four hours later, the cells in the 96-well plates were centrifuged at 1000 g for 5 min and the supernatants were removed. 50 μl lysis buffer (10 mM Tris, pH 7.5, 0.1M NaCl, 1 mM EDTA, 0.01% Triton X-100) was added to each well and the plates were shaked horizontally for 30 min at 4° C. After centrifugation at 1000 g at 4° C. for 10 min, 20 μl of supernatant was transferred from each well to a corresponding well in a 384-well black plate. […] The plates were shaked to uniformly mix the wells and incubated at 37° C. for 3 h. […] The caspase-3 activity induced by the compounds was expressed as a relative fluorescence unit (RFU). The obtained fluorescence readings were analyzed using a commercial graphic software (GraphPad Prism 5) and plotted against the Log value of the compound concentrations. The EC50 values were obtained by fitting the data points with the equation of Y (fluorescence reading)=minimal fluorescence reading+(maximal fluorescence reading−minimal fluorescence reading)/(1+10̂(LogEC50−LogC)), where C is the concentration of the testing compound. The EC50 values were obtained by fitting the data points with S-shaped dose response curve equation (GraphPad Software, Inc).

[2] = system: SW620 human colorectal cancer cells; experiment: Potentiation of the growth inhibiting activity of MMS, MTT based cell viability assay; conditions: read-out: Compounds potentiate the growth inhibiting activity of MMS (IC50)
Description: The synergistic potentiation effect of PARP inhibitors on the growth inhibiting activity of DNA damaging anticancer drugs such as methyl methanesulphonate (MIMS) were measured with SW620 human colorectal cancer cells (Shanghai Cancer Institute) using a MTT based cell viability assay. SW620 cells were grown and maintained in RPMI1640 (Gibco) medium supplemented with 10% FBS (Hyclone). In the first day of experiment, 4000 cells were seeded to each well of a 96-well cell culture plate and incubated at 37° C. and 5% CO2 in a cell culture incubator overnight. In the next day, the cell culture medium was removed. […] The serial dilutions of the reference compounds and the compounds to be tested were made with a 1:3 and 1:10 fashion in DMSO. The 10-fold concentrated solutions of these compounds were made by mixing 10 μl of the serial dilutions in DMSO with 90 μl fresh medium. The final concentration of DMSO in the medium was 1%. The cells were incubated at 37° C. in 5% CO2 cell culture incubator for additional 5 days (120 hours). Afterwards, the 96-well cell culture plate was taken out and 20 μl of MTT solution was added to each well and incubated at 37° C. for 4 h. The medium was removed and 100 μl DMSO was added to each well. The 96-well cell culture plates were shaked adequately for 10 min and readed in a Varioskan Flash plate reader (Thermo Fisher Scientific) at 520 and 690 nm. The data were analyzed by Prism 5 software (GraphPad). The obtained 520 nm absorbance readings substracting corresponding 690 nm reading were analyzed and plotted against the Log scale of the compound concentrations.

[3] = T47D cells, 100 nM MMS, 24 hours, intracellular caspase-3 activity
[4] = SW620 cells, medium containing 1.5 μg/ml MMS, 5 days (120 hours), MTT

SMILES | EC50 ([1]; Homo sapiens, T47D, 24 h) [µM] | IC50 ([2]; Homo sapiens, SW-620, 120 h) [µM] | EC50 [1, 3] [µM] | IC50 [2, 4] [µM]
O=C(c1ccc(F)cc1)N1CCN(C(=O)c2cc(Cn3c4c(c(=O)[nH]c3=O)CCCC4)ccc2F)CC1 [Example 32, 1-(4-Fluoro-3-(4-(4-fluorobenzoyl)piperazine-1-carbonyl)benzyl)-5,6,7,8-tetrahydroquinazoline-2,4(1H,3H)-dione] | 0.027 | 0.0063 | – | –
CC(=O)N1CCN(C(=O)c2cc(Cn3c4c(c(=O)[nH]c3=O)CCCC4)ccc2F)CC1 [Example 34, 1-(4-Fluoro-3-(4-acetylpiperazine-1-carbonyl)benzyl)-5,6,7,8-tetrahydroquinazoline-2,4(1H,3H)-dione] | 0.402 | 0.042 | – | –
COc1ccc(C(=O)N2CCN(C(=O)c3cc(Cn4c5c(c(=O)[nH]c4=O)CCCC5)ccc3F)CC2)cc1 [Example 37, 1-(4-Fluoro-3-(4-(4-methoxybenzoyl)piperazine-1-carbonyl)benzyl)-5,6,7,8-tetrahydroquinazoline-2,4(1H,3H)-dione] | 0.048 | 0.014 | – | –
O=C(c1cccc(Cn2c3c(c(=O)[nH]c2=O)CCC3)c1)N1CCN(c2ncccn2)CC1 [Example 45] | – | – | 0.402 | 0.138
O=C(c1ccccc1)N1CCN(C(=O)c2ccc(F)c(Cn3c4c(c(=O)[nH]c3=O)CCCC4)c2)CC1 [Example 48, 1-(6-Fluoro-3-(4-benzoylpiperazine-1-carbonyl)benzyl)-5,6,7,8-tetrahydroquinazoline-2,4(1H,3H)-dione] | 0.026 | 0.013 | – | –
O=C(c1ccc(F)c(Cn2c3c(c(=O)[nH]c2=O)CCCC3)c1)N1CCN(C(=O)c2ccco2)CC1 [Example 52, 1-(6-Fluoro-3-(4-(furan-2-carbonyl)piperazine-1-carbonyl)benzyl)-5,6,7,8-tetrahydroquinazoline-2,4(1H,3H)-dione] | 0.024 | 0.016 | – | –
O=C(c1cc(Cn2c3c(c(=O)[nH]c2=O)CCCC3)ccc1F)N1CCC(c2ccccc2)CC1 [Example 54, 1-(4-Fluoro-3-(4-phenylpiperidine-1-carbonyl)benzyl)-5,6,7,8-tetrahydroquinazoline-2,4(1H,3H)-dione] | 0.532 | 0.107 | – | –
O=C(c1ccc(Cn2c3c(c(=O)[nH]c2=O)CCCC3)cc1)N1CCN(c2ncccn2)CC1 [Example 55, 1-(4-(4-(Pyrimidin-2-yl)piperazine-1-carbonyl)benzyl)-5,6,7,8-tetrahydroquinazoline-2,4(1H,3H)-dione] | > 10 | > 10 | – | –
O=C(c1ccccc1Cn1c2c(c(=O)[nH]c1=O)CCCC2)N1CCN(c2ncccn2)CC1 [Example 56, 1-(2-(4-(Pyrimidin-2-yl)piperazine-1-carbonyl)benzyl)-5,6,7,8-tetrahydroquinazoline-2,4(1H,3H)-dione] | > 10 | > 10 | – | –
CC1CCc2c(c(=O)[nH]c(=O)n2Cc2ccc(F)c(C(=O)N3CCN(c4ncccn4)CC3)c2)C1 (stereo not drawn) [Example 57, 1-(4-Fluoro-3-(4-(pyrimidin-2-yl)piperazine-1-carbonyl)benzyl)-6-methyl-5,6,7,8-tetrahydroquinazoline-2,4(1H,3H)-dione] | 0.429 | 0.221 | – | –
CC1CCCc2c1c(=O)[nH]c(=O)n2Cc1ccc(F)c(C(=O)N2CCN(c3ccccn3)CC2)c1 (stereo not drawn) [Example 58, 1-(4-Fluoro-3-(4-(pyridin-2-yl)piperazine-1-carbonyl)benzyl)-5-methyl-5,6,7,8-tetrahydroquinazoline-2,4(1H,3H)-dione] | – | – | 0.35 | 0.082
O=C(c1cc(Cn2c3c(c(=O)[nH]c2=O)CCCCC3)ccc1F)N1CCN(c2ncccn2)CC1 [Example 59, 1-(4-Fluoro-3-(4-(pyrimidin-2-yl)piperazine-1-carbonyl)benzyl)-6,7,8,9-tetrahydro-1H-cyclohepta[d]pyrimidine-2,4(3H,5H)-dione] | 0.309 | 0.042 | – | –

Source: patent US20140275711A1, “1-(Arylmethyl)-5,6,7,8-tetrahydroquinazolline-2,4-diones and Analogs and the Use Thereof” (Impact Therapeutics, Inc., priority 2011, published 2014)
